In ChEMBL document CHEMBL1201862, “PubChem BioAssay data set” (2004):
Calls of active or inactive are those of the source. Non-standard residues stand in square brackets, D forms with d. Residues, ends and D or L forms follow the SMILES beside them. ξ: configuration not given here. *: point of attachment. ξF = NC(Cc1ccccc1)C(=O)O; Cbz = O=C(OCc1ccccc1)*

Columns and labels:
[1] = molecular target: T1, Replicative DNA helicase DnaB (Mycobacterium tuberculosis, UniProt P9WMR3); test: DnaB intein splicing inhibitors, dose response, biochemical, cell-free fluorescence (AID 449749); assay type: functional
T1 sequence (P9WMR3 whole entry): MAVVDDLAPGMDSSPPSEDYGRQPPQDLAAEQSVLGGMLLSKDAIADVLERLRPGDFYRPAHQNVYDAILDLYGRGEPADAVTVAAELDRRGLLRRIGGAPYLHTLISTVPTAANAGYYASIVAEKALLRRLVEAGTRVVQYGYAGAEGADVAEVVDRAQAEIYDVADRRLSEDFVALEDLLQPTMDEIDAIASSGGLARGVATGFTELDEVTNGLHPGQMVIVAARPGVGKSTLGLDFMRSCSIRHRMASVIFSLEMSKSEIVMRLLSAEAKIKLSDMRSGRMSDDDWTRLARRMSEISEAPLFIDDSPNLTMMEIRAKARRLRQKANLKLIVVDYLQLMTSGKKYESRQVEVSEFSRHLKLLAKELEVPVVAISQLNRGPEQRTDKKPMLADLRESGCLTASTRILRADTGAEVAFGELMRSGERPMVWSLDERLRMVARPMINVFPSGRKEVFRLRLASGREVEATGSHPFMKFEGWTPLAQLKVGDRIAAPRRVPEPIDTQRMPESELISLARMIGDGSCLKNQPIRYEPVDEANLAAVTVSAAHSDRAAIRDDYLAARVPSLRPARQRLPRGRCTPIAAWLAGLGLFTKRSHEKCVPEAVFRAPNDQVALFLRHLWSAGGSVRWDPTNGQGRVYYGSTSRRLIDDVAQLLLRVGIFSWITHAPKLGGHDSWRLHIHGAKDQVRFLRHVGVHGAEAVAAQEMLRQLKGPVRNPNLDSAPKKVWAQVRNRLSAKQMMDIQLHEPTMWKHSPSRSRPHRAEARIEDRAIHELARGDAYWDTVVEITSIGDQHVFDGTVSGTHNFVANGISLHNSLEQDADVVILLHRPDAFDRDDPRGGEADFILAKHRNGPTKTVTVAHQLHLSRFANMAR

[2] = molecular target: T2, Protein RecA (Mycobacterium tuberculosis, UniProt P9WHJ3); test: Fluorescence Cell-Free Homogeneous Dose Retest to Identify Inhibitors of RecA-Intein Splicing Activity. [Related pubchem assays (depositor defined):AID2097, AID2223, AID489010, AID492950]; assay type: functional
T2 sequence (P9WHJ3 whole entry): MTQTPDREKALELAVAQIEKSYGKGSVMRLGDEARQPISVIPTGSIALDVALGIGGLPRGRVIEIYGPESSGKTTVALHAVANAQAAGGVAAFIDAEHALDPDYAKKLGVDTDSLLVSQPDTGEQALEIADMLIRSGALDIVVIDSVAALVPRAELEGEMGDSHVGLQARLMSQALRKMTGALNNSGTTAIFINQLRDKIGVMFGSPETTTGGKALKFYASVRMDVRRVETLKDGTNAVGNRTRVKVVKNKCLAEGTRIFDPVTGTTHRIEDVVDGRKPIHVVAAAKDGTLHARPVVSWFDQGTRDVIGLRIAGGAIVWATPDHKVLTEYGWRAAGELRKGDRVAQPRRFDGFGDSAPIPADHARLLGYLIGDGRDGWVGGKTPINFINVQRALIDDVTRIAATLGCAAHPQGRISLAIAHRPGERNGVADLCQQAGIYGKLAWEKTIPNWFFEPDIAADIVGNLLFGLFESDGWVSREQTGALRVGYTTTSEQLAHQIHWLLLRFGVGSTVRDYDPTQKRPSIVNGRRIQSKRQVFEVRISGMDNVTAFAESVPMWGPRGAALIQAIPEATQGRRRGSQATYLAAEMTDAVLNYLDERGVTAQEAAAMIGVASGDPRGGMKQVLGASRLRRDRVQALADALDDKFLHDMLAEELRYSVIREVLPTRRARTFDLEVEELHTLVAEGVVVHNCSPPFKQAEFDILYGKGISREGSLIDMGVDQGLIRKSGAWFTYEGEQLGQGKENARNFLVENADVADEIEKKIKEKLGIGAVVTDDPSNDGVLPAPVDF

[3] = molecular target: FAD-linked sulfhydryl oxidase ALR (Homo sapiens, UniProt P55789); test: ALR-catalysed DTT oxidation blockers – biochemical, H2O2 detection, luminescence, cherry-pick, dose response (AID 493248)
Chain of FAD-linked sulfhydryl oxidase ALR (P55789 whole entry): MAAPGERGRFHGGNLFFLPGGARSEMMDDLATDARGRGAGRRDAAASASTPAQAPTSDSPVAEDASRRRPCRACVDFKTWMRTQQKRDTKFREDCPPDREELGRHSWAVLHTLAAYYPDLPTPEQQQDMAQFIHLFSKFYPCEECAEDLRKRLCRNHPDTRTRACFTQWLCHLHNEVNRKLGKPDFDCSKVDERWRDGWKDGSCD

[4] = molecular target: Luciferin 4-monooxygenase (Photinus pyralis, UniProt P08659); test: inhibition of purified Photinus pyralis luciferase – biochemical, luminescence, dose response (AID 1891)
Chain of Luciferin 4-monooxygenase (P08659 whole entry): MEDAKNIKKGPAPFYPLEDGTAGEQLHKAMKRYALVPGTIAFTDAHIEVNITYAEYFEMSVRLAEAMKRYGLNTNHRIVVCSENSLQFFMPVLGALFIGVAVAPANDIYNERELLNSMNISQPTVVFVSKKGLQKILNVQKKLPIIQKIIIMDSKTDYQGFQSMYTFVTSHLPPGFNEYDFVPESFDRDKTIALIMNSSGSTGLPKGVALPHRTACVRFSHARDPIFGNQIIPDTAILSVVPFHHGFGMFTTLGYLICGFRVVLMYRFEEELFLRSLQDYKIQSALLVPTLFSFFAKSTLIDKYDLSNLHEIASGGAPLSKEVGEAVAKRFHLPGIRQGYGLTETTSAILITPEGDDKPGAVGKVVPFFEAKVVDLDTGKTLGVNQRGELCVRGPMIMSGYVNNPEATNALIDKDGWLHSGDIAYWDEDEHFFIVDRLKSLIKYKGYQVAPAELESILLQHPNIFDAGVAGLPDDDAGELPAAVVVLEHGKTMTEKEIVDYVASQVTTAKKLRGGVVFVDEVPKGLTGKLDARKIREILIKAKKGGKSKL

[5] = Luminescence Cell-Based Dose Confirmation HTS to Identify Inhibitors of Platelet Dense Granule Release. [Related pubchem assays: 1663 (Primary HTS), 1678 (Summary of Project)]; assay type: functional
[6] = molecular target: Nonstructural protein 1 (Influenza A virus, UniProt Q194T2); assay type: functional, Influenza A virus (A/California/07/2009(H1N1))
Chain of Nonstructural protein 1 (Q194T2 whole entry): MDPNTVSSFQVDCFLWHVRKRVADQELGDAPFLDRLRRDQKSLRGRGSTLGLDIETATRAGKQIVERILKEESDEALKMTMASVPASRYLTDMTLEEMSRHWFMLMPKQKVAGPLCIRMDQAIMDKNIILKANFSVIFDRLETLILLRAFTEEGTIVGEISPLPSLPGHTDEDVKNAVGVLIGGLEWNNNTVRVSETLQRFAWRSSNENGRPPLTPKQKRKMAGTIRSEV

[7] = viability of uninfected HEp-2 cells – cell-based, HTS, cytotoxicity control for RSV inhibitor project, dose response (AID 2410); assay type: functional; conditions: human respiratory syncytial virus
[8] = P. falciparum Dd2 growth inhibitors, dose response, SYBR Green, cherry-picked samples (AID 1159567); assay type: functional, cell-based
[9] = molecular target: T3, Ubiquitin-conjugating enzyme E2 N (Homo sapiens, UniProt P61088); assay type: functional;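 also: Dose-response confirmation in a TR-FRET assay detecting UBC13-driven polyubiquitin chain formation, inhibition measured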
T3 sequence (P61088 whole entry): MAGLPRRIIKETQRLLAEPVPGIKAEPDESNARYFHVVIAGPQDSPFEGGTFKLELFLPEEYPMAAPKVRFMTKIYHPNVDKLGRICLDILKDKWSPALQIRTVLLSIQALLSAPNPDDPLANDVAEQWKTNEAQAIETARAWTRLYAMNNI

[10] = cells; assay type: functional, cell-based
[11] = cells; assay type: functional, cell-based; remark: listed apart in the source
[12] = molecular target: T4, Heat shock factor protein 1 (Mus musculus, UniProt P38532); test: decrease of HSF1-responsive luciferase luminescence – cell-based, NIH3T3, dose retest, confirmation (AID 2382); assay type: functional;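 also: NIH3T3 fibroblasts with HSF1-driven luciferase reporter stressed by proteasome inhibitor MG132; luminescence from HSF1-driven luciferase expression after 8 hours of MG132 stress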
T4 sequence (P38532 whole entry): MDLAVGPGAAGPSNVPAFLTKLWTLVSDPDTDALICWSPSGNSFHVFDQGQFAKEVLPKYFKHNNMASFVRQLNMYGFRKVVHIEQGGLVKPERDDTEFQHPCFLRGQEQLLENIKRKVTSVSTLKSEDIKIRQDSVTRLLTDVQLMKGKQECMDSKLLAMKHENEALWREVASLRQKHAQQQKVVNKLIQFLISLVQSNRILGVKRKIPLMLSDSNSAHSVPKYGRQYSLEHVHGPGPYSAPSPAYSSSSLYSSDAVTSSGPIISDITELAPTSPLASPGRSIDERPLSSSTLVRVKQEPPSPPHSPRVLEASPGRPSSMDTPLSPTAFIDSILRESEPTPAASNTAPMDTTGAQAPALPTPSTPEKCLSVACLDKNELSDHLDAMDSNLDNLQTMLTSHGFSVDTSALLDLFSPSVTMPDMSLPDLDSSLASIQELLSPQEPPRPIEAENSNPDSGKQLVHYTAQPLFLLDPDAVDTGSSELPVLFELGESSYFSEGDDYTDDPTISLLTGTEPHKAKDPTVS

[13] = molecular target: Cytochrome P450 3A4 (Homo sapiens, UniProt P08684);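 also: CYP3A4 tested as one member of a cytochrome P450 panel screen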
Chain of Cytochrome P450 3A4 (P08684 whole entry): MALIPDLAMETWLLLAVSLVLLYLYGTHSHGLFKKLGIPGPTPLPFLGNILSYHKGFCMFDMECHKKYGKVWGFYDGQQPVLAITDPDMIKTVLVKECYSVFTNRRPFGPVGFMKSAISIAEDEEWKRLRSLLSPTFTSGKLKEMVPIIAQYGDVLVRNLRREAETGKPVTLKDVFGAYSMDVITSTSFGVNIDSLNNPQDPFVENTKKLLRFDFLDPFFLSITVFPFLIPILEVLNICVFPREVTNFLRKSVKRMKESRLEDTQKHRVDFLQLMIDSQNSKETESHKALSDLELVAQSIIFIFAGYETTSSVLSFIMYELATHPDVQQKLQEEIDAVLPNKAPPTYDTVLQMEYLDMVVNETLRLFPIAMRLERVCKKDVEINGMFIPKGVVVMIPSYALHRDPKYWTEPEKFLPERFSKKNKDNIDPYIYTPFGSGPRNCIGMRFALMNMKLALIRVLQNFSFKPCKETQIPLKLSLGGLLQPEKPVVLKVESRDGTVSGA

With `CC1=NN(c2ccccc2)C(=O)C1` [EDARAVONE] the AC50 [1] was 2.75 µM (active) and the EC50 [2] was 2.95 µM (active).

For `Cc1cccc(Sc2c([N+](=O)[O-])ncn2C)c1`, the AC50 [3] was 0.265 µM (active).

With `CCOc1ccc(-c2nc(CCl)cs2)cc1` the EC50 [4] was 40.7 µM (active) and the EC50 [5] was > 112 µM (not active).

For `CCc1nnc(NC(=O)[C@@H](NC(=O)c2ccc(OC)cc2)C(C)C)s1`, the EC50 [4] was > 112 µM (not active) and the EC50 [5] was > 112 µM (not active).

In the case of `OCCN(Cc1cccnc1)Cc1ccccn1`, the IC50 [6] was 4.64 µM (active).

With `O=C(N/N=C/c1ccc(-c2ccccc2[N+](=O)[O-])o1)[C@H]1C[C@@H]1c1ccccc1` the CC50 [7] was 18.3 µM (active), the AC50 [1] was 8.14 µM (active) and the EC50 [2] was 18.9 µM (active).

In the case of `Cc1cccc(C)c1NC(=O)C1CCCN1S(=O)(=O)c1ccc(-c2ccc(O)nn2)s1` (stereo not given), the EC50 [4] was > 112 µM (not active) and the EC50 [5] was 47.1 µM (active).

With `CCOC(=O)C1(Cc2cccc(OC)c2)CCN(CC=C(C)C)CC1` the EC50 [4] was > 112 µM (not active) and the EC50 [5] was 21.4 µM (active).

For `N#Cc1ccc(-c2ccc([C@@H]3[C@@H]4CN(S(=O)(=O)Cc5ccccc5)C[C@H]3N4)cc2)cc1`, the AC50 [8] was 6.48 µM (active).

In the case of `CCOC(=O)c1cc(-c2ccccc2)nc2ccc(C)cc12` [NEOCINCHOPHEN], the IC50 [9] was > 20 µM (inactive).

In the case of `Cc1cccc(NC(=O)c2ccc(NCCO)c([N+](=O)[O-])c2)n1`, the EC50 [4] was > 112 µM (not active) and the EC50 [5] was 25.5 µM (active).

In the case of `COc1ccc(NC(=O)Nc2ccc3c(c2)CC(=O)N([C@@H](C)CO)C[C@@H](C)[C@H](CN(C)CC2CCCCC2)O3)cc1`, the AC50 [8] was 4.85 µM (active).

In the case of `N#CC(c1ccccc1)c1cnccn1` (stereo not given), the AC50 [1] was > 380 µM (inactive) and the EC50 [2] was > 380 µM (inactive).

With `N#CC1=C(N)Oc2[nH]nc(-c3cccs3)c2C1c1ccncc1` (stereo not given) the AC50 [1] was 31 µM (active) and the EC50 [2] was 5.36 µM (active).

With `O=C1NC(=O)/C(=C/c2ccc(OS(=O)(=O)c3ccc(F)cc3F)cc2)N1` the EC50 [10] was > 350 µM (not active) and the EC50 [11] was > 350 µM (not active).

With `CN(C)c1cccc(C(=O)NCc2ccccc2)c1` the AC50 [3] was 5.25 µM (active).

In the case of `Cc1cccc(-c2noc(CN(C)S(=O)(=O)c3cc(Cl)ccc3Cl)n2)c1`, the EC50 [10] was > 350 µM (not active) and the EC50 [11] was > 350 µM (not active).

For `NC(=O)c1nsc(C(=O)N(c2cccc(F)c2)C(C(=O)NC2CCCC2)c2ccco2)c1N` (stereo not given), the EC50 [12] was > 195 µM (not active) and the IC50 [9] was > 20 µM (inactive).

In the case of `Sc1nnc(-c2cccc3ccccc23)n1-c1cccnc1`, the AC50 [3] was 8.24 µM (active).

For `COc1ccc2c3c([nH]c2c1)[C@H](CO)N(Cc1ccccc1F)CC31CN(C(=O)C2CCCC2)C1`, the AC50 [8] was 9.56 µM (active).

With `COc1cccc(CNC(=O)c2cc(S(=O)(=O)N3CCOCC3)cn2C)c1` the EC50 [4] was > 112 µM (not active) and the EC50 [5] was > 112 µM (not active).

For `Cc1n[nH]c(O)c1C(c1ccc(O)c(Br)c1)c1c(C)n[nH]c1O`, the AC50 [1] was 0.326 µM (active) and the EC50 [2] was 0.232 µM (active).

In the case of `COc1ccc(C2C(C#N)=C(N)Nc3onc(C(C)(C)C)c32)c(OC)c1` (stereo not given), the IC50 [6] was > 100 µM (active).

For `COc1cccc(-n2c(S)nnc2CCn2nc(C)c([N+](=O)[O-])c2C)c1`, the AC50 [3] was 10.6 µM (active).

In the case of `CCOC(=O)C(Cc1ccccc1)NC(=O)CNC(=O)CNC(=O)OCc1ccccc1` (stereo not drawn) (Cbz-Gly-Gly-[ξF]-OEt), the EC50 [4] was > 112 µM (not active) and the EC50 [5] was 25 µM (active).

For `CO[C@@H]1CN(C)C(=O)c2ccc(NC(=O)C3CCC3)cc2OC[C@@H](C)N(CC2CCCCC2)C[C@H]1C`, the AC50 [8] was 4.4 µM (active).

In the case of `CN(CC(=O)Nc1ccccc1Oc1ccccc1)Cc1ccccc1F`, the EC50 [10] was > 350 µM (not active) and the EC50 [11] was > 350 µM (not active).

For `Cc1ccc2cc(CN(Cc3ccco3)C(=O)C3CCCCC3)c(O)nc2c1C`, the EC50 [4] was > 112 µM (not active) and the EC50 [5] was > 112 µM (not active).

For `COC(=O)Cc1cc(O)nc(Nc2nc3ccccc3o2)n1`, the IC50 [9] was > 20 µM (inactive).

With `COc1cc2c(cc1OC)C(c1ccccc1)N(S(C)(=O)=O)CC2` (stereo not given) the EC50 [10] was > 350 µM (not active) and the EC50 [11] was > 350 µM (not active).

In the case of `CC(C)N(c1ccccc1)c1ncnc(NCCC(=O)O)c1[N+](=O)[O-]`, the EC50 [10] was > 350 µM (not active) and the EC50 [11] was > 350 µM (not active).

In the case of `COc1cccc(NC(=O)N2CCN(c3cccc(C)c3)C(C)C2)c1` (stereo not given), the AC50 [3] was 6.28 µM (active).

In the case of `Cc1cccc(N2CCN(C(=O)c3ccncc3)CC2C)c1` (stereo not given), the AC50 [3] was 9.32 µM (active).

For `CCN(c1ccc(NC(=O)COC(=O)c2ccc3ccccc3n2)cc1)C(C)C`, the IC50 [6] was 93.5 µM (active) and the AC50 [13] was 39.8 µM (inconclusive).

For `COc1ccc(CN2CCNC(=O)C2CC(=O)NC2CCCC2)c(OC)c1` (stereo not given), the EC50 [10] was > 350 µM (not active) and the EC50 [11] was > 350 µM (not active).

In the case of `CN1CCCCN2[C@@H](CO)[C@@H](c3ccc(-c4cccnc4)cc3)[C@@H]2C1`, the AC50 [8] was 6.76 µM (active).

In the case of `Cc1ccc(N2C(=O)CSC2c2cccnc2)cc1F` (stereo not given), the AC50 [3] was 0.193 µM (active).

For `Cc1ccc(-c2csc(NC(=O)C[n+]3cc(-c4ccc(C)cc4)n4c3CCC4)n2)cc1`, the IC50 [9] was > 20 µM (inactive).

For `CCCOC(=O)c1ccc(OC(=O)c2ccco2)cc1`, the AC50 [1] was 13 µM (active) and the EC50 [2] was 11.8 µM (active).

With `CCCc1cc(C(=O)N2CCCC(N3CCN(c4ccc(F)cc4)CC3)C2)no1` (stereo not given) the AC50 [3] was > 100 µM (inactive).

For `CCOC(=O)C1CCN(c2ncnc3cc(OC)c(OC)cc23)CC1`, the EC50 [4] was > 112 µM (not active) and the EC50 [5] was 9.14 µM (active).
